Measured values as given in US20250197406A1, “INDAZOLES AS HEMATOPOIETIC PROGENITOR KINASE 1 (HPK1) INHIBITORS AND METHODS FOR USING SAME” (1ST Biotherapeutics, Inc., priority 2022, published 2025).
Counter-ions that a name gives are not always drawn.

Molecular target: recombinant human HPK1 (Homo sapiens (Human), UniProt Q92918)
Assay: HPK1 kinase assay (Promega ADP-Glo kinase assay)
Assay type: biochemical
Conditions: In vitro activity against HPK1, 5 ng HPK1, MBP substrate, ATP 25 μM, 30° C. 40 minutes
Method: HPK1 kinase activity was measured by Promega's ADP-Glo™ kinase assay. In this assay, 5 ng of recombinant human HPK1 (signalchem) is incubated with 5 μL of compounds (0.5% DMSO), 5 μL of MBP (0.5 μg/μl) and 5 μL of ATP (25 μM) in buffer (40 mM Tris, 7.5; 20 mM MgCl2; 0.1 mg/ml BSA; 50 μM DTT.). The assay was started by incubating the reaction mixture in a 96-well plate at 30° C. for 40 minutes. After the incubation, 25 μL ADP-Glo reagent was added and the reaction was incubated at room temperature for 40-min to stop the reaction and degrade residual ATP. The ADP product was then converted to ATP by adding 50 μL per well of detection reagent. Luminescence was detected after 30-min room temperature incubation with the Molecular device I3X plate reader. The IC50 values were calculated from a series of percent inhibition values determined at a range of inhibitor concentration using software routines as implemented in the GraphPad Prism 7 software and SigmaPlot13.0.

Chain of recombinant human HPK1 (Q92918 whole entry): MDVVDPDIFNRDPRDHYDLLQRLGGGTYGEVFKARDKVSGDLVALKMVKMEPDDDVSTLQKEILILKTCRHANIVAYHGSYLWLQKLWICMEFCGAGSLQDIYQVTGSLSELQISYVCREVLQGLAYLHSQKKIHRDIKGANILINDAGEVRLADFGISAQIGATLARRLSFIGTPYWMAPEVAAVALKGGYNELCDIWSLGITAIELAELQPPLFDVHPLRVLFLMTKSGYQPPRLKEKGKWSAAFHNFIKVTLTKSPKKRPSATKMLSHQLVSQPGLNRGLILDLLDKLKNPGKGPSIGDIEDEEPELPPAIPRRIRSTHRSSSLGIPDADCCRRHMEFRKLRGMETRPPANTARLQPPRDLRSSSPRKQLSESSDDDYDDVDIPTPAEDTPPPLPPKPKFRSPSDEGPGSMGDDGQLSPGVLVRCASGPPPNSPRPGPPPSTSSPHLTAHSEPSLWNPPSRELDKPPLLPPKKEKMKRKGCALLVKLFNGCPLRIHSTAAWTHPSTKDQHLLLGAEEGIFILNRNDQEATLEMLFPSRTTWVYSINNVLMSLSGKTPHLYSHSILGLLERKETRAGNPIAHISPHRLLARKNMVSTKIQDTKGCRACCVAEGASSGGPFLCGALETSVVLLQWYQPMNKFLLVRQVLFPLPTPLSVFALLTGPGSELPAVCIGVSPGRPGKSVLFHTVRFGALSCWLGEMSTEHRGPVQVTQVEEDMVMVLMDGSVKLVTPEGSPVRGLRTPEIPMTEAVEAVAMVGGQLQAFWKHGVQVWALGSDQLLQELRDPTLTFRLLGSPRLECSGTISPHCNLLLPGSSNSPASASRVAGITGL

| IC50 | Compound |
| --- | --- |
| < 100 nM | CC(C)Nc1c(F)c(Cl)c(-c2cn3cc(NC(=O)Cc4cocn4)nc3cn2)c2cn[nH]c12 [Example 144, N-(6-(5-chloro-6-fluoro-7-(isopropylamino)-1H-indazol-4-yl)imidazo[1,2-a]pyrazin-2-yl)-2-(oxazol-4-yl)acetamide] |
| < 100 nM | CC(C)Nc1c(F)c(Cl)c(-c2cn3cc(NC(=O)C(F)F)nc3cn2)c2cn[nH]c12 [Example 122, N-(6-(5-chloro-6-fluoro-7-(isopropylamino)-1H-indazol-4-yl)imidazo[1,2-a]pyrazin-2-yl)-2,2-difluoroacetamide] |
| < 100 nM | CC(C)Nc1c(F)c(Cl)c(-c2cn3cc(NC(=O)N4CCCC4)nc3cn2)c2cn[nH]c12 [Example 124, N-(6-(5-chloro-6-fluoro-7-(isopropylamino)-1H-indazol-4-yl)imidazo[1,2-a]pyrazin-2-yl)pyrrolidine-1-carboxamide] |
| < 100 nM | CC(C)Nc1c(F)c(Cl)c(-c2cn3cc(NC(=O)c4ccccc4)nc3cn2)c2cn[nH]c12 [Example 57, N-(6-(5-chloro-6-fluoro-7-(isopropylamino)-1H-indazol-4-yl)imidazo[1,2-a]pyrazin-2-yl)benzamide] |
| < 100 nM | CCC(=O)Nc1cn2cc(-c3c(Cl)c(F)c(NC(C)C)c4[nH]ncc34)ncc2n1 [Example 61, N-(6-(5-chloro-6-fluoro-7-(isopropylamino)-1H-indazol-4-yl)imidazo[1,2-a]pyrazin-2-yl)propionamide] |
| < 100 nM | CC(C)(C)[S+]([O-])NC(c1c(F)c(C(F)(F)F)c(-c2cn3cc(NC(=O)[C@@H]4C[C@@H]4F)nc3cn2)c2cn[nH]c12)C1CC1 (stereo partly drawn) [Example 97, (1S,2S)-N-(6-(7-(((tert-butylsulfinyl)amino)(cyclopropyl)methyl)-6-fluoro-5-(trifluoromethyl)-1H-indazol-4-yl)imidazo[1,2-a]pyrazin-2-yl)-2-fluorocyclopropane-1-carboxamide] |
| 501 to 1000 nM | Cc1c(F)c(C(C)N(C)C)c2[nH]ncc2c1-c1cn2cc(NC(=O)[C@@H]3C[C@@H]3F)nc2cn1 (stereo partly drawn) [Example 12, (1S,2S)-N-(6-(7-(1-(dimethylamino)ethyl)-6-fluoro-5-methyl-1H-indazol-4-yl)imidazo[1,2-a]pyrazin-2-yl)-2-fluorocyclopropane-1-carboxamide] |
| < 100 nM | CC(N[S+]([O-])C(C)(C)C)c1c(F)c(C(F)(F)F)c(-c2cn3cc(NC(=O)[C@@H]4C[C@@H]4F)nc3cn2)c2cn[nH]c12 (stereo partly drawn) [Example 87, (1S,2S)-N-(6-(7-(1-((tert-butylsulfinyl)amino)ethyl)-6-fluoro-5-(trifluoromethyl)-1H-indazol-4-yl)imidazo[1,2-a]pyrazin-2-yl)-2-fluorocyclopropane-1-carboxamide] |
| < 100 nM | CSCC(=O)Nc1cn2cc(-c3c(Cl)c(F)c(NC(C)C)c4[nH]ncc34)ncc2n1 [Example 100, N-(6-(5-chloro-6-fluoro-7-(isopropylamino)-1H-indazol-4-yl)imidazo[1,2-a]pyrazin-2-yl)-2-(methylthio)acetamide] |

Further lines, the molecule ahead of its results:

| Compound | IC50 |
| --- | --- |
| CC(CN)c1c(F)c(C(F)(F)F)c(-c2cn3cc(NC(=O)[C@@H]4C[C@@H]4F)nc3cn2)c2cn[nH]c12 (stereo partly drawn) [Example 98, (1S,2S)-N-(6-(7-(1-aminopropan-2-yl)-6-fluoro-5-(trifluoromethyl)-1H-indazol-4-yl)imidazo[1,2-a]pyrazin-2-yl)-2-fluorocyclopropane-1-carboxamide formate] | < 100 nM |
| CC(NC=O)c1c(F)c(C(F)F)c(-c2cn3cc(NC(=O)[C@@H]4C[C@@H]4F)nc3cn2)c2cn[nH]c12 (stereo partly drawn) [Example 75, (1S,2S)-N-(6-(5-(difluoromethyl)-6-fluoro-7-(1-formamidoethyl)-1H-indazol-4-yl)imidazo[1,2-a]pyrazin-2-yl)-2-fluorocyclopropane-1-carboxamide] | < 100 nM |
| NC(c1c(F)c(C(F)F)c(-c2cn3cc(NC(=O)[C@@H]4C[C@@H]4F)nc3cn2)c2cn[nH]c12)C1CC1 (stereo partly drawn) [Example 41, (1S,2S)-N-(6-(7-(amino(cyclopropyl)methyl)-5-(difluoromethyl)-6-fluoro-1H-indazol-4-yl)imidazo[1,2-a]pyrazin-2-yl)-2-fluorocyclopropane-1-carboxamide] | < 100 nM |
| CCCC(=O)Nc1cn2cc(-c3c(Cl)c(F)c(NC(C)C)c4[nH]ncc34)ncc2n1 [Example 110, N-(6-(5-chloro-6-fluoro-7-(isopropylamino)-1H-indazol-4-yl)imidazo[1,2-a]pyrazin-2-yl)butyramide] | < 100 nM |
| CNC(C)c1c(F)c(C)c(-c2cn3cc(NC(=O)[C@@H]4C[C@@H]4F)nc3cn2)c2cn[nH]c12 (stereo partly drawn) [Example 10, (1S,2S)-2-fluoro-N-(6-(6-fluoro-5-methyl-7-(1-(methylamino)ethyl)-1H-indazol-4-yl)imidazo[1,2-a]pyrazin-2-yl)cyclopropane-1-carboxamide] | 101 to 500 nM |
| CC(C)Nc1c(F)c(C(F)F)c(-c2cn3cc(NC(=O)[C@@H]4C[C@@H]4F)nc3cn2)c2cn[nH]c12 [Example 28, (1S,2S)-N-(6-(5-(difluoromethyl)-6-fluoro-7-(isopropylamino)-1H-indazol-4-yl)imidazo[1,2-a]pyrazin-2-yl)-2-fluorocyclopropane-1-carboxamide] | < 100 nM |
| Cc1c(F)c(C(C)CN)c2[nH]ncc2c1-c1cn2cc(NC(=O)[C@@H]3C[C@@H]3F)nc2cn1 (stereo partly drawn) [Example 24, (1S,2S)-N-(6-(7-(1-aminopropan-2-yl)-6-fluoro-5-methyl-1H-indazol-4-yl)imidazo[1,2-a]pyrazin-2-yl)-2-fluorocyclopropane-1-carboxamide] | < 100 nM |
| CC(=O)Nc1cn2cc(-c3c(Cl)c(F)c([C@H](C)NC=O)c4[nH]ncc34)ncc2n1 [Example 140, (S)-N-(6-(5-chloro-6-fluoro-7-(1-formamidoethyl)-1H-indazol-4-yl)imidazo[1,2-a]pyrazin-2-yl)acetamide] | < 100 nM |
| O=C(Nc1cn2cc(-c3c(Cl)c(F)c(OC4CNC4)c4[nH]ncc34)ncc2n1)[C@@H]1C[C@@H]1F [Example 143, (1S,2S)-N-(6-(7-(azetidin-3-yloxy)-5-chloro-6-fluoro-1H-indazol-4-yl)imidazo[1,2-a]pyrazin-2-yl)-2-fluorocyclopropane-1-carboxamide formate] | 501 to 1000 nM |
| CC(N)c1c(F)c(C(F)(F)F)c(-c2cn3cc(NC(=O)[C@@H]4C[C@@H]4F)nc3cn2)c2cn[nH]c12 (stereo partly drawn) [Example 45, (1S,2S)-N-(6-(7-(1-aminoethyl)-6-fluoro-5-(trifluoromethyl)-1H-indazol-4-yl)imidazo[1,2-a]pyrazin-2-yl)-2-fluorocyclopropane-1-carboxamide] | 501 to 1000 nM |
| CC(C)Nc1c(F)c(Cl)c(-c2cn3cc(NC(=O)CO)nc3cn2)c2cn[nH]c12 [Example 129, N-(6-(5-chloro-6-fluoro-7-(isopropylamino)-1H-indazol-4-yl)imidazo[1,2-a]pyrazin-2-yl)-2-hydroxyacetamide] | < 100 nM |
| CCNC(=O)Nc1cn2cc(-c3c(Cl)c(F)c(NC(C)C)c4[nH]ncc34)ncc2n1 [Example 119, 1-(6-(5-chloro-6-fluoro-7-(isopropylamino)-1H-indazol-4-yl)imidazo[1,2-a]pyrazin-2-yl)-3-ethylurea] | < 100 nM |
| Cc1c(F)c(C(C2CC2)N2C(=O)c3ccccc3C2=O)c2[nH]ncc2c1-c1cn2cc(NC(=O)[C@@H]3C[C@@H]3F)nc2cn1 (stereo partly drawn) [Example 21, (1S,2S)-N-(6-(7-(cyclopropyl(1,3-dioxoisoindolin-2-yl)methyl)-6-fluoro-5-methyl-1H-indazol-4-yl)imidazo[1,2-a]pyrazin-2-yl)-2-fluorocyclopropane-1-carboxamid] | < 100 nM |
| Cc1c(F)c(C(O)C2CC2)c2[nH]ncc2c1-c1cn2cc(NC(=O)[C@@H]3C[C@@H]3F)nc2cn1 (stereo partly drawn) [Example 1, (1S,2S)-N-(6-(7-(cyclopropyl(hydroxy)methyl)-6-fluoro-5-methyl-1H-indazol-4-yl)imidazo[1,2-a]pyrazin-2-yl)-2-fluorocyclopropane-1-carboxamide] | < 100 nM |
| Cc1c(F)c(C(N)C2CC2)c2[nH]ncc2c1-c1cn2cc(NC(=O)[C@@H]3C[C@@H]3F)nc2cn1 (stereo partly drawn) [Example 23, (1S,2S)-N-(6-(7-(amino(cyclopropyl)methyl)-6-fluoro-5-methyl-1H-indazol-4-yl)imidazo[1,2-a]pyrazin-2-yl)-2-fluorocyclopropane-1-carboxamide] | < 100 nM |
| CC(C)Nc1c(F)c(Cl)c(-c2cn3cc(NC(=O)CC4COC4)nc3cn2)c2cn[nH]c12 [Example 116, N-(6-(5-chloro-6-fluoro-7-(isopropylamino)-1H-indazol-4-yl)imidazo[1,2-a]pyrazin-2-yl)-2-(oxetan-3-yl)acetamide] | < 100 nM |
| COc1c(F)c(NC(C)C)c2[nH]ncc2c1-c1cn2cc(NC(=O)C3CC3)nc2cn1 [Example 160, N-(6-(6-fluoro-7-(isopropylamino)-5-methoxy-1H-indazol-4-yl)imidazo[1,2-a]pyrazin-2-yl)cyclopropanecarboxamide] | < 100 nM |
| CC(C)Nc1c(F)c(Cl)c(-c2cn3cc(N4CCOCC4)nc3cn2)c2cn[nH]c12 [Example 91, 5-chloro-6-fluoro-N-isopropyl-4-(2-morpholinoimidazo[1,2-a]pyrazin-6-yl)-1H-indazol-7-amine] | 501 to 1000 nM |
| CC(C)Nc1c(F)c(C(F)F)c(-c2cn3cc(NC(=O)[C@@H]4C[C@@H]4C#N)nc3cn2)c2cn[nH]c12 [Example 154, (1R,2S)-2-cyano-N-(6-(5-(difluoromethyl)-6-fluoro-7-(isopropylamino)-1H-indazol-4-yl)imidazo[1,2-a]pyrazin-2-yl)cyclopropane-1-carboxamide] | < 100 nM |
